“Also recorded” adds a separate entry of the source.
Columns and labels:
NF-κB = NF-κB activity, secreted alkaline phosphatase reporter in THP1-XBlue-MD2-CD14 cells; format: cell-based, human; conditions: 1 h pretreatment, 24 h; for decrease of NF-κB activity stimulated by LPS: LPS 1 μg/mL; for decrease of NF-κB activation induced by Pam3CSK4: Pam3CSK4 100 ng/mL; for decrease of NF-κB activity stimulated by TNF-α: TNF-α 10 ng/mL
Protocol: The THP-1 human monocytic leukemia cell line was obtained from the European Collection of Cell Cultures (ECACC, Salisbury, UK) and THP1-XBlue™-MD2-CD14 cells were purchased from Invivogen (San Diego, USA). The cells were cultivated at 37°C in the RPMI 1640 medium supplemented with 2 mM L-glutamine, 10% FBS, 100 U/mL penicillin, and 100 μg/mL streptomycin in a humidified atmosphere containing 5% CO2. The culture was split twice a week when the cells had reached the concentration of 5–7×10^5 cells/mL. The cell count and viability were determined following staining with erythrosin B. The cells were counted manually using a hemocytometer and a light microscope.
One hundred microliters of the stabilized THP-1 cells (5th-20th passage) were split into 96-well plates to afford the concentration of 5×10^5 cells/mL, and differentiation into macrophages was induced by the addition of phorbol myristate acetate (PMA), as described previously. THP1-XBlue™-MD2-CD14 cells were used without any differentiation due to their stabile expression of MD2 and CD14 co-receptors.
THP1-XBlue™-MD2-CD14 cells were transferred into a serum-free medium at the concentration of 5×10^5 cells/mL. The floated cells were pretreated with the tested compounds (i.e. complexes 1–7, [Cu(Law)2(H2O)2]·0.5H2O, and Hlaw, respectively) and stimulated either by LPS (1 μg/mL), or by the addition of human recombinant TNF-α (10 ng/mL; Invivogen), or by Pam3CSK4 (100 ng/mL; Invivogen), a synthetic triacylated lipoprotein and selective Toll-like receptor 1/2 agonist. After 24 h of the incubation, 20 μL of the cultivation medium was mixed with 180 μL of Quanti-Blue medium and incubated according to the manufacturer’s instructions at 37°C for 2 h. The activity of released alkaline phosphatase, directly proportional to the NF-κB activity, was quantified from the difference in absorbance at 655 nm against the untreated control.

[1] = test system: carrageenan-induced hind paw edema; assay: Carrageenan-induced hind paw edema, plethysmometry; format: in vivo, rat; conditions: rats, i.p., dose corresponding to 40 mmol Cu/kg (ca. 20 mg/kg), 30 min before carrageenan, up to 6 h
Protocol: Wistar—SPF (6–8 weeks male) rats were obtained from the AnLab, Ltd., Prague. The animals were kept in plexiglass cages at the constant temperature of 22±1°C, and relative humidity of 55±5% for at least 1 week before the experiment. They were given food and water ad libitum. After a one-week adaptation period, male Wistar-SPF rats (200–250 g) were randomly assigned into ten groups (n = 7) of animals in the study. The first, control group, received 10% DMF (v/v in water, intraperitoneal; i.p.). The next eight groups were pretreated with complexes 1–7 and [Cu(Law)2(H2O)2]·0.5H2O (at the dose corresponding to […] Cu/kg; ca. 20 mg/kg) and involved into the carrageenan-treatment. The last group was treated with a non-steroidal anti-inflammatory drug Indomethacin (5 mg/kg), which served as a positive control (Indomethacin + carrageenan).
The carrageenan-induced hind paw edema model was used for the determination of the anti-inflammatory activity. […] The paw volume was measured immediately after the carrageenan injection and during the next 6 h after the administration of the edematogenic agent using a plethysmometer (model 7159, Ugo Basile, Varese, Italy). The degree of swelling induced was evaluated as the percentage of change in the volume of the right hind paw after the carrageenan treatment from the volume of the right hind paw before the carrageenan treatment.

[2] = test system: PMN infiltration of hind paw tissue; assay: Ex vivo histological evaluation of hind paw tissue (hematoxylin/eosin); format: in vivo, rat; conditions: rats, i.p., tissue after 6 h
Excerpt: All the animals were sacrificed by cervical dislocation, and immediately after that, the affected hind paws were separated and underwent the process of dehydration and fixation, and were embedded into paraffin blocks by means of standard protocols. The histopathological changes, like infiltration of different skin elements and deeper laying tissues by the polymorphonuclear white blood cells (dominantly neutrophils and lymphocytes) stained by the standard hematoxylin/eosin staining, were evaluated.

TNF-α = TNF-α secretion in LPS-stimulated THP-1 macrophages (ELISA); format: cell-based, human; conditions: 100 nM, 1 h pretreatment, LPS 1 μg/mL, 24 h
Protocol: One hundred microliters of the stabilized THP-1 cells (5th-20th passage) were split into 96-well plates to afford the concentration of 5×10^5 cells/mL, and differentiation into macrophages was induced by the addition of phorbol myristate acetate (PMA), as described previously. […] Whereas the complexes were dissolved in PBS, lawsone was dissolved in DMSO. With respect to the results of cytotoxicity assay, the concentration of 100 nM should not affect the viability of the target cells in any way. For comparative purposes, a conventional drug prednisone was used at the standard dose of 1 μM dissolved in DMSO. Then, the DMSO was added to the rest of the wells. […] Vehicle-treated cells contained a vehicle (0.1% DMSO) only. The TNF-α secretion in the pretreated differentiated THP-1 macrophages was induced by the addition of 1 μg/mL LPS dissolved in sterile water. The basal cytokine expression level was determined in the control cells without the LPS stimulation. LPS triggers an inflammatory response through binding to toll-like receptor 4 (TLR-4) and subsequently activates the NF-κB signaling pathway. The cultivation medium was aspirated 24 h after the LPS addition and the cell residue was removed by centrifugation. The concentration of the secreted TNF-α was determined using the Human TNF-α Instant ELISA kit.

[3] = In vitro cytotoxicity, WST-1 assay, 24 h; format: cell-based; conditions: human, THP-1 monocytic leukemia cells
Protocol: The final concentration of the solvent in the culture medium was 0.1% (v/v). The cells were incubated at 37°C with 5% CO2 for 24 h. After the incubation, the cytotoxicity was determined by the Cell Proliferation Reagent WST-1 kit according to the manufacturer´s instructions.

[4] = 100 nM, vs vehicle-treated cells

Compound: O.O=C1C=C([O-])C(=O)c2ccccc21.O=C1C=C([O-])C(=O)c2ccccc21.[Cu+2].c1ccncc1 [compound 1, [Cu(Law)2(H2O)(py)]]
- decrease of NF-κB activity stimulated by LPS (NF-κB; [4]): did not affect
- decrease of NF-κB activation induced by Pam3CSK4 (NF-κB; 100 nM): no noticeable effect
- antiedematous activity (hind paw swelling) [1]: diminish completely the swelling of the hind paw; also recorded: most active
- PMN infiltration / inflammatory reaction in hind paw tissue ([2]; (ca. 20 mg/kg)): mainly scarce and diffuse

Compound: O=C1C=C([O-])C(=O)c2ccccc21.O=C1C=C([O-])C(=O)c2ccccc21.[Cu+2].c1c[nH]cn1.c1c[nH]cn1 [compound 2, [Cu(Law)2(Im)2]]
- decrease of NF-κB activity stimulated by LPS (NF-κB; [4]): 10%
- decrease of NF-κB activation induced by Pam3CSK4 (NF-κB; 100 nM): no noticeable effect

Compound: COc1ccc2c(c1)c(CC(=O)O)c(C)n2C(=O)c1ccc(Cl)cc1 [indomethacin, reference compound]
- PMN infiltration / inflammatory reaction in hind paw tissue ([2]; 5 mg/kg): mainly scarce and diffuse

Compound: O=C1C=C(O)C(=O)c2ccccc21 [lawsone, 2-hydroxy-1,4-naphthoquinone]
- decrease of NF-κB activity stimulated by LPS (NF-κB; [4]): 19–24%
- decrease of NF-κB activity stimulated by TNF-α (NF-κB; 100 nM): 32%
- decrease of TNF-α expression/secretion in LPS-stimulated cells (TNF-α): 28%
- viability at 24 h, 10 µM [3]: ~80%

Compound: C[C@]12C=CC(=O)C=C1CC[C@@H]1[C@@H]2C(=O)C[C@@]2(C)[C@H]1CC[C@]2(O)C(=O)CO [prednisone, reference compound]
- decrease of NF-κB activity stimulated by LPS (NF-κB; 1 μM): 26%
- decrease of NF-κB activity stimulated by TNF-α (NF-κB; 1 μM): 37%

Compound: [Cu(Law)2(3,5diMePz)2]·0.5H2O [compound 7]
- decrease of NF-κB activity stimulated by LPS (NF-κB; [4]): 19–24%
- antiedematous activity (hind paw swelling) [1]: least active
- PMN infiltration / inflammatory reaction in hind paw tissue ([2]; (ca. 20 mg/kg)): massive presence of PMN cells

Compound: [Cu(Law)2(3-OHpy)2] [compound 6]
- decrease of NF-κB activity stimulated by LPS (NF-κB; [4]): 12%

Compound: [Cu(Law)2(3-apy)2]·0.5H2O [compound 4]
- decrease of NF-κB activity stimulated by LPS (NF-κB; [4]): 19–24%

Compound: [Cu(Law)2(H2O)(2-apy)]·0.5H2O [compound 3]
- decrease of NF-κB activity stimulated by LPS (NF-κB; [4]): 19–24%
- decrease of NF-κB activation induced by Pam3CSK4 (NF-κB; 100 nM): most efficient
- decrease of TNF-α expression/secretion in LPS-stimulated cells (TNF-α): greatest potential
